The results in this text go back to publication PMC12514245, “Impaired migration and lung invasion of human melanoma by a novel small molecule targeting the transmembrane domain of death receptor p75^NTR” (EMBO Molecular Medicine, 2025).

The structures appear in SMILES notation. Values joined by “and” are separate entries in the source; they are usually repeats but may differ in a detail not shown here. Equal values may be shown once. “Also recorded” adds a separate entry of the source. Read-outs that look alike come from different tables or passages of the source.

In series [1] the target is T1, Matrix-2 protein (M2) TMD (Influenza A virus, UniProt P06821).
T1 construct: unrelated TMDs from α2β3 integrin and Matrix-2 protein (M2); expressed in transfected cells
The format is cell-based. Particulars: for GFP/OD630, M2, mean: N=3.

The next series has as its system α2β3 integrin TMD. The series is described as follows: AraTM assay, α2β3 integrin TMD. The series is classed as cell-based. The note with it: for GFP/OD630, A2b, mean: N=3.
For series [2] the following is noted: mouse, in vivo.
Series [3] has as its system A875-shp75 melanoma xenograft. Kind of series: Melanoma lung invasion assay, A875-shp75, delayed treatment 3 weeks after cell injection. The format is in vivo, SCID mice. The procedure:
Finally, we investigated whether delayed administration of Np75-4A22 was able to affect engraftment and growth of metastatic tumors in the lung. To this end, drug treatment (orally at 200 mg/kg) was initiated 3 weeks after intravenous injection of A875-NT or A875-shp75 cells in female SCID mice and continued for additionally 4 weekly cycles (5 days on/2 days off) as above (Fig. 8E). Metastatic spread to the lungs was monitored weekly by bioluminescent imaging of luciferase-expressing melanoma cells. […] We conclude that Np75-4A22 can be efficacious at reducing the spread and seeding of melanoma cells in the lung when administered either before or after cell implantation.
Eight-week-old female SCID mice (Charles River Laboratories, Shrewsbury, MA, USA) were housed in groups of three to five and maintained on a 12-h light/dark schedule with a temperature of 22 °C ± 1 °C and a relative humidity of 50% ± 5%. Food and water were available ad libitum. This research study was reviewed and approved by the University of Calgary Animal Care Committee (AC22-0054) and McGill University (AUP-JGH-8269) and adheres to established ethical principles and guidelines. A875-GFPLuc (A875-NT) or A875-GFPLuc shp75 (A875-shp75) cells harvested using Puck’s EDTA were resuspended in PBS and injected intravenously into SCID mice (5 × 10^5 cells/200 μl per mouse). Np75-4A22 was dissolved in 0.5% sodium carboxymethyl cellulose (NaCMC) in reverse osmosis H2O and administered by oral gavage at 200 mg/kg/day starting one day prior to intravenous (tail vein) injection of tumor cells and continued for 3 1-week cycles (cycle: 5 days on drug, 2 days off drug). Tumor spread to the lung was monitored weekly by luciferase activity using the Xenogen IVIS-200 Optical in vivo luciferase imaging system as described previously (Lun et al, [2016]) and by immunohistochemistry (IHC) at designated time points. IHC was performed after formalin fixation, paraffin embedding and sectioning of the lungs, using a human-specific mouse polyclonal nucleolin antibody (1:500 dilution) and detected using Dako liquid DAB+ Substrate Chromogen System (Dako: k3468, California, USA) followed by a hematoxylin counterstain (Sigma, Oakville, ON, Canada). Sections were mounted and imaged on an Olympus phase contrast microscope (Olympus Life Science, Tokyo, Japan). For immunofluorescence, sections were stained with anti-human nucleolin and anti-human p75NTR antibodies (1:1000 dilution), subsequently detected with 1:200 dilutions of Alexa Fluor™ 488 Goat anti-Mouse IgG (H + L) Highly Cross-Adsorbed Secondary Antibody and Alexa Fluor™ 568 Goat anti-Rabbit IgG (H + L) Cross-Adsorbed Secondary Antibody. Sections were further stained with DAPI to detect all nuclei. Between each treatment, TBS Automation Wash Buffer (Biocare Medical TWB945M) was employed. Images were taken with LSM800 confocal microscope and ZEN system.

For a further series, the system named is human 70W cells. The series is described as follows: Lung invasion after intravenous injection of 70W cells. Particulars: 70W cells lose p75ntr expression in vivo. Here is the method:
A875 NT cells that both wound areas decreased from 1 to ~0.75 in 24 hours. But in […]
Do the in vitro assays recapitulate melanoma invasiveness? If not, is it possible the ideal compounds were missed from the screening in melanoma cells (Figure 6)? […] This assay simply scores the relative orientation/conformation of the interacting receptor TMDs in isolation form the rest of the receptor. The wound healing assay is a rather simplistic assay of cell motility. The in vitro assay that better recapitulates what may happen in vivo is the Boyden chamber migration/invasion assay.
2. In Figure 7A, co-IP experiment requires input and IgG control to show positivity and specificity. In Figure 7B, quantification using the ratio of Triton-insoluble fascin to total fascin will be much more solid than only showing the western blot.
The input control was added in 7A and quantification in 7B (also in 7A).
"NGF treatment strongly stimulated the association of fascin with p75NTR".
The labels in the Western blot shown in this panel were incorrect. They have now been […]
4. Validation of results in another human cell line
During the past year, multiple tests were done by intravenous injection of human 70W cells, […]
followed by monitoring cells in the lungs in the presence and absence of drug treatment. […]
in vivo environment. […]

Series [4] addresses TMD of TrkB receptor tyrosine kinase (Homo sapiens, UniProt Q16620). The series is described as follows: 2D NMR chemical shift perturbation, TrkB TMD in bicelles. The series is classed as binding. The note with it: 4 molar excess compound.
Series [5] deals with TMD of TNF receptor 2 (TNFR2) (Homo sapiens, UniProt P20333). Kind of series: 2D NMR chemical shift perturbation, TNFR2 TMD in bicelles. The series is classed as binding. The note with it: 4 molar excess compound.
Sequence of TMD of TNF receptor 2 (TNFR2) (P20333 258-290 limits assumed): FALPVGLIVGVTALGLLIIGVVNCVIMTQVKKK

T1 sequence (P06821 23-43 limits assumed): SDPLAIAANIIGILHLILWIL
Sequence of TMD of TrkB receptor tyrosine kinase (Q16620 419-466): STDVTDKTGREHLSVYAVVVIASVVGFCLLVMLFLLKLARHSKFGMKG

Regarding `Oc1ccc(-c2cncc(Nc3ccc(Br)c(Cl)c3)n2)cc1` [Div17E5], the “GFP/OD630, M2, single replicates” value was 96 and 90 and 113 in series [1] (Div17E5 1 μM); 94 (2×) and 111 in series [1] (Div17E5 2.5 μM); 89 and 109 and 92 in series [1] (Div17E5 5 μM); 90 and 105 and 99 in series [1] (Div17E5 10 μM); 109 and 89 and 98 in series [1] (Div17E5 20 μM); 112 and 92 and 109 in series [1] (Div17E5 50 μM). The “GFP/OD630, M2, mean” value in series [1] (Div17E5 1 μM) came out at 100; in series [1] (Div17E5 2.5 μM) it was 100; in series [1] (Div17E5 5 μM), 97; in series [1] (Div17E5 10 μM) it was 98; in series [1] (Div17E5 20 μM), 99; in series [1] (Div17E5 50 μM), 104. The “GFP/OD630, A2b, single replicates” value with α2β3 integrin TMD (Div17E5 1 μM) was 111 and 92 and 98; with α2β3 integrin TMD (Div17E5 2.5 μM), 89 and 116 and 95; in the series on α2β3 integrin TMD (Div17E5 5 μM), 95 and 87 and 112; in the series with α2β3 integrin TMD (Div17E5 10 μM) it was 81 and 96 and 87; in the series with α2β3 integrin TMD (Div17E5 20 μM), 90 and 98 and 82; in the series on α2β3 integrin TMD (Div17E5 50 μM), 79 and 86 and 94. Further, the “GFP/OD630, A2b, mean” value in the series on α2β3 integrin TMD (Div17E5 1 μM) amounted to 100; in the series on α2β3 integrin TMD (Div17E5 2.5 μM) it was 100; in the series on α2β3 integrin TMD (Div17E5 5 μM) it was 98; with α2β3 integrin TMD (Div17E5 10 μM), 88; in the series with α2β3 integrin TMD (Div17E5 20 μM) it was 90; in the series with α2β3 integrin TMD (Div17E5 50 μM) it was 86.
As to `Cc1cccc(-c2cncc(Nc3ccc(Br)c(Cl)c3Cl)n2)c1C` [Np75-4A22], in series [2], the single dose toxicity entry is “No mortality or abnormal clinical signs”. Besides, the “Average Photons/second/week, wk2” value in series [3] (group average, wk2) came out at 9.88E+04 Photons/second. The “Average Photons/second/week, wk3” value in series [3] (group average, wk3) turned out to be 1.46E+05 Photons/second. For the same compound, in series [3] (group average, wk4), the “Average Photons/second/week, wk4” value is 1.10E+05 Photons/second. Besides, the “Average Photons/second/week, wk5” value in series [3] (group average, wk5) came out at 2.77E+05 Photons/second. Further, the “Average Photons/second/week, wk6” value in series [3] (group average, wk6) was determined as 4.60E+05 Photons/second. Moreover, the “Average Photons/second/week, wk7” value in series [3] (group average, wk7) worked out at 1.10E+06 Photons/second. For the same compound, the “Photons/second/ mouse/week, wk2” value in series [3] (individual mouse, wk2) is 1.05E+05 Photons/second and 6.22E+04 Photons/second and 8.27E+04 Photons/second and 9.38E+04 Photons/second and 1.02E+05 Photons/second and 8.99E+04 Photons/second and 1.49E+05 Photons/second and 1.09E+05 Photons/second and 9.56E+04 Photons/second. Further, in series [3] (individual mouse, wk3), the “Photons/second/ mouse/week, wk3” value is 1.10E+05 Photons/second and 1.18E+05 Photons/second and 1.42E+05 Photons/second and 1.47E+05 Photons/second and 1.39E+05 Photons/second and 1.86E+05 Photons/second and 1.67E+05 Photons/second and 1.65E+05 Photons/second and 1.36E+05 Photons/second. Also, in series [3] (individual mouse, wk4), the “Photons/second/ mouse/week, wk4” value was 1.43E+05 Photons/second and 9.53E+04 Photons/second and 1.42E+05 Photons/second and 1.00E+05 Photons/second and 1.24E+05 Photons/second and 1.66E+05 Photons/second and 4.36E+04 Photons/second and 7.52E+04 Photons/second and 1.02E+05 Photons/second. Moreover, the “Photons/second/ mouse/week, wk5” value in series [3] (individual mouse, wk5) is 1.26E+05 Photons/second and 1.70E+05 Photons/second and 1.58E+05 Photons/second and 1.31E+05 Photons/second and 1.75E+05 Photons/second and 1.89E+05 Photons/second and 1.28E+05 Photons/second and 4.29E+05 Photons/second and 9.90E+05 Photons/second. Further, the “Photons/second/ mouse/week, wk6” value in series [3] (individual mouse, wk6) was 2.09E+05 Photons/second and 1.96E+05 Photons/second and 2.02E+05 Photons/second and 2.61E+05 Photons/second and 6.18E+04 Photons/second and 1.19E+05 Photons/second and 3.83E+05 Photons/second and 2.25E+06 Photons/second. Further, the “Photons/second/ mouse/week, wk7” value in series [3] (individual mouse, wk7) is 1.96E+05 Photons/second and 1.65E+05 Photons/second and 3.28E+05 Photons/second and 1.98E+06 Photons/second and 3.78E+06 Photons/second. Besides, in the series on human 70W cells, the “number of metastasized 70W cells in the lungs” value was “had no effect on the number of metastasized cells”. In addition, the “chemical shift perturbations, TrkB TMD” value in series [4] is recorded as “mostly non-specific interaction; also recorded: no or minimal chemical shift perturbations”. For the same compound, the “chemical shift perturbations, TNFR2 TMD” value in series [5] is “essentially no interaction; also recorded: no or minimal chemical shift perturbations”.
